The test system of the experiment is BDF1 mice, s.c. Lewis lung carcinoma, T/C %. Briefly: NCI In Vivo Anticancer Drug Screen. Data for tumor model Lewis Lung Carcinoma (subcutaneous) in B6D2F1 (BDF1) mice. In short, it runs like this:
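Transplanted tumors grown in mice; compound vs vehicle dosing; endpoint survival or tumor size; ratio T/C.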

Setting [1] is: endpoint: mean tumor weight, dose: 100.0 mg/kg/injection, schedule: Q01DX011 (ip), vehicle: carboxymethylcellulose (CMC), higher = larger tumour.
Setting [2] is: endpoint: mean tumor weight, dose: 20.0 mg/kg/injection, schedule: Q01DX011 (ip), vehicle: saline, higher = larger tumour.

Drawing on PubChem BioAssay AID270 (DTP/NCI, 2004), this text covers T/C for 13 compounds.

Several values for one entry are separate records, joined by “and”; a condition that tells them apart may be missing. Equal entries are not always repeated. Records with an inconclusive call do not appear.

On to `CC(C)(CC(=O)O)CC(=O)OCC(=O)[C@@]1(O)CC[C@H]2[C@@H]3CCC4=CC(=O)C=C[C@]4(C)[C@H]3[C@@H](O)C[C@@]21C`, for which the T/C is, setting by setting: (endpoint: mean tumor weight, dose: 40.0 mg/kg/injection, schedule: Q01DX011 (sc), vehicle: steriod suspending solution, higher = larger tumour) 69 % of control; (endpoint: mean tumor weight, dose: 80.0 mg/kg/injection, schedule: Q01DX011 (sc), vehicle: steriod suspending solution, higher = larger tumour) 76 % of control; (endpoint: mean tumor weight, dose: 160.0 mg/kg/injection, schedule: Q01DX011 (sc), vehicle: steriod suspending solution, higher = larger tumour) 60 % of control; (endpoint: mean tumor weight, dose: 320.0 mg/kg/injection, schedule: Q01DX011 (sc), vehicle: steriod suspending solution, higher = larger tumour) 51 % of control and 57 % of control; (endpoint: mean tumor weight, dose: 640.0 mg/kg/injection, schedule: Q01DX011 (sc), vehicle: steriod suspending solution, higher = larger tumour) 31 % of control.
On to `CC(C)C1C=C2CCC3C(C)(C(=O)O)CCCC3(C)C2CC1` (centres undefined), for which the T/C was 89 % of control under setting [1] and 38 % of control (endpoint: mean tumor weight, dose: 200.0 mg/kg/injection, schedule: Q01DX011 (ip), vehicle: carboxymethylcellulose (CMC), higher = larger tumour).
Take `Cc1c2ccncc2c(C)c2c1[nH]c1ccccc12`: the T/C (endpoint: median survival time, dose: 37.5 mg/kg/injection, schedule: Q04DX003 (ip), vehicle: saline with Tween-80, higher = longer survival) is 120 % of control and the T/C (endpoint: median survival time, dose: 75.0 mg/kg/injection, schedule: Q04DX003 (ip), vehicle: saline with Tween-80, higher = longer survival) is 87 % of control.
With `O=c1[nH]c(=O)n(C2CC(O)C(CO)O2)cc1C(F)(F)F` (centres undefined), the T/C runs as follows: (endpoint: median survival time, dose: 2.5 mg/kg/injection, schedule: Q01DX009 (ip), vehicle: saline, higher = longer survival) 119 % of control; (endpoint: median survival time, dose: 5.0 mg/kg/injection, schedule: Q01DX009 (ip), vehicle: saline, higher = longer survival) 103 % of control; (endpoint: median survival time, dose: 10.0 mg/kg/injection, schedule: Q01DX009 (ip), vehicle: saline, higher = longer survival) 118 % of control.
Turning to `O=c1[nH]c(=O)n(C2CC(O)C(CO)O2)cc1F` (centres undefined), the T/C is 82 % of control (endpoint: mean tumor weight, dose: 10.0 mg/kg/injection, schedule: Q01DX011 (ip), vehicle: saline, higher = larger tumour); 57 % of control under setting [2]; 45 % of control (endpoint: mean tumor weight, dose: 26.0 mg/kg/injection, schedule: Q01DX011 (ip), vehicle: saline, higher = larger tumour); 17 % of control and 23 % of control (endpoint: mean tumor weight, dose: 40.0 mg/kg/injection, schedule: Q01DX011 (ip), vehicle: other, higher = larger tumour); 25 % of control and 27 % of control (endpoint: mean tumor weight, dose: 40.0 mg/kg/injection, schedule: Q01DX011 (ip), vehicle: saline, higher = larger tumour); 17 % of control and 23 % of control (endpoint: mean tumor weight, dose: 60.0 mg/kg/injection, schedule: Q01DX011 (ip), vehicle: saline, higher = larger tumour). The T/C by setting is: (endpoint: mean tumor weight, dose: 80.0 mg/kg/injection, schedule: Q01DX011 (ip), vehicle: other, higher = larger tumour) 10 % of control; (endpoint: mean tumor weight, dose: 80.0 mg/kg/injection, schedule: Q01DX011 (ip), vehicle: saline, higher = larger tumour) 18 % of control; (endpoint: mean tumor weight, dose: 120.0 mg/kg/injection, schedule: Q01DX011 (ip), vehicle: saline, higher = larger tumour) 1 % of control; (endpoint: mean tumor weight, dose: 160.0 mg/kg/injection, schedule: Q01DX011 (ip), vehicle: other, higher = larger tumour) 4 % of control; (endpoint: median survival time, dose: 25.0 mg/kg/injection, schedule: Q01DX009 (ip), vehicle: saline, higher = longer survival) 90 % of control and 110 % of control and 114 % of control; (endpoint: median survival time, dose: 36.0 mg/kg/injection, schedule: Q01DX011 (ip), vehicle: saline, higher = longer survival) 116 % of control. Further, the T/C was 116 % of control (endpoint: median survival time, dose: 50.0 mg/kg/injection, schedule: Q01DX009 (ip), vehicle: saline with Tween-80, higher = longer survival); 92 % of control and 98 % of control (endpoint: median survival time, dose: 50.0 mg/kg/injection, schedule: Q01DX009 (ip), vehicle: saline, higher = longer survival); 104 % of control (endpoint: median survival time, dose: 80.0 mg/kg/injection, schedule: Q01DX011 (ip), vehicle: saline, higher = longer survival); 95 % of control (endpoint: median survival time, dose: 100.0 mg/kg/injection, schedule: Q01DX009 (ip), vehicle: saline with Tween-80, higher = longer survival); 94 % of control (endpoint: median survival time, dose: 119.0 mg/kg/injection, schedule: Q01DX011 (ip), vehicle: saline, higher = longer survival); 72 % of control (endpoint: median tumor weight (est.), dose: 25.0 mg/kg/injection, schedule: Q01DX009 (ip), vehicle: saline with Tween-80, higher = larger tumour). Also, the T/C reads like this: (endpoint: median tumor weight (est.), dose: 50.0 mg/kg/injection, schedule: Q01DX009 (ip), vehicle: saline with Tween-80, higher = larger tumour) 66 % of control; (endpoint: median tumor weight (est.), dose: 100.0 mg/kg/injection, schedule: Q01DX009 (ip), vehicle: saline with Tween-80, higher = larger tumour) 32 % of control.
With `C1CC[N-]CC1.C1CC[N-]CC1.C1CC[N-]CC1.[Cl][Rh]([Cl])[Cl]`, the T/C is 96 % of control (endpoint: median survival time, dose: 4.0 mg/kg/injection, schedule: Q01DX009 (ip), vehicle: saline, higher = longer survival); 93 % of control (endpoint: median survival time, dose: 8.0 mg/kg/injection, schedule: Q01DX009 (ip), vehicle: saline, higher = longer survival); 103 % of control (endpoint: median survival time, dose: 16.0 mg/kg/injection, schedule: Q01DX009 (ip), vehicle: saline, higher = longer survival); 98 % of control (endpoint: median survival time, dose: 32.0 mg/kg/injection, schedule: Q01DX009 (ip), vehicle: saline, higher = longer survival); 92 % of control (endpoint: median survival time, dose: 64.0 mg/kg/injection, schedule: Q01DX009 (ip), vehicle: saline, higher = longer survival).
On to `O=C1N(Cl)C(=O)C(c2ccc(Cl)cc2)(c2ccc(Cl)cc2)N1Cl`, for which the T/C reads like this: (endpoint: mean tumor weight, dose: 17.0 mg/kg/injection, schedule: Q01DX011 (ip), vehicle: other, higher = larger tumour) 84 % of control; (endpoint: mean tumor weight, dose: 33.0 mg/kg/injection, schedule: Q01DX011 (ip), vehicle: other, higher = larger tumour) 68 % of control; (endpoint: mean tumor weight, dose: 50.0 mg/kg/injection, schedule: Q01DX011 (ip), vehicle: other, higher = larger tumour) 23 % of control; (endpoint: mean tumor weight, dose: 75.0 mg/kg/injection, schedule: Q01DX011 (ip), vehicle: other, higher = larger tumour) 25 % of control; (endpoint: mean tumor weight, dose: 112.0 mg/kg/injection, schedule: Q01DX011 (ip), vehicle: other, higher = larger tumour) 36 % of control; (endpoint: mean tumor weight, dose: 224.0 mg/kg/injection, schedule: Q01DX011 (ip), vehicle: other, higher = larger tumour) 52 % of control. Further, the T/C is 95 % of control (endpoint: median survival time, dose: 12.5 mg/kg/injection, schedule: Q01DX009 (ip), vehicle: Klucel (hydroxypropylcellulose) (HPC), higher = longer survival); 87 % of control (endpoint: median survival time, dose: 25.0 mg/kg/injection, schedule: Q01DX009 (ip), vehicle: Klucel (hydroxypropylcellulose) (HPC), higher = longer survival); 101 % of control (endpoint: median survival time, dose: 50.0 mg/kg/injection, schedule: Q01DX009 (ip), vehicle: Klucel (hydroxypropylcellulose) (HPC), higher = longer survival).
Consider `COc1c(OC)c(OC)c2c(=O)cc(-c3ccc(OC(C)=O)cc3)oc2c1OC`, for which the T/C runs as follows: (endpoint: mean tumor weight, dose: 50.0 mg/kg/injection, schedule: Q01DX010 (sc), vehicle: steriod suspending solution, higher = larger tumour) 97 % of control; (endpoint: mean tumor weight, dose: 100.0 mg/kg/injection, schedule: Q01DX010 (sc), vehicle: steriod suspending solution, higher = larger tumour) 74 % of control; (endpoint: mean tumor weight, dose: 200.0 mg/kg/injection, schedule: Q01DX010 (sc), vehicle: steriod suspending solution, higher = larger tumour) 76 % of control; (endpoint: mean tumor weight, dose: 400.0 mg/kg/injection, schedule: Q01DX010 (sc), vehicle: steriod suspending solution, higher = larger tumour) 77 % of control.
With `O=NN(CCCl)C(=O)Nc1ncc([N+](=O)[O-])s1`, the T/C (endpoint: median survival time, dose: 154.0 mg/kg/injection, schedule: Q01DX001 (ip), vehicle: other, higher = longer survival) is 112 % of control.
As for `COC1N(C2CC(O)C(CO)O2)C(=O)NC(=O)C1(F)Br` (centres undefined), the T/C (endpoint: mean tumor weight, dose: 8.8 mg/kg/injection, schedule: Q01DX011 (ip), vehicle: saline, higher = larger tumour) is 45 % of control and 51 % of control and 55 % of control; the T/C (endpoint: mean tumor weight, dose: 13.3 mg/kg/injection, schedule: Q01DX011 (ip), vehicle: saline, higher = larger tumour) was 36 % of control and 56 % of control and 57 % of control; the T/C under setting [2] was 13 % of control and 22 % of control; the T/C (endpoint: median survival time, dose: 1.56 mg/kg/injection, schedule: Q01DX009 (ip), vehicle: saline, higher = longer survival) is 110 % of control and 117 % of control; the T/C (endpoint: median survival time, dose: 3.12 mg/kg/injection, schedule: Q01DX009 (ip), vehicle: saline, higher = longer survival) was 110 % of control; the T/C (endpoint: median survival time, dose: 3.13 mg/kg/injection, schedule: Q01DX009 (ip), vehicle: saline, higher = longer survival) is 113 % of control. For the same compound, the T/C runs as follows: (endpoint: median survival time, dose: 6.25 mg/kg/injection, schedule: Q01DX009 (ip), vehicle: saline, higher = longer survival) 109 % of control and 277 % of control; (endpoint: median survival time, dose: 12.5 mg/kg/injection, schedule: Q01DX009 (ip), vehicle: saline, higher = longer survival) 279 % of control.
In the case of `CCOc1ccc2nc(S(N)(=O)=O)sc2c1`, the T/C is, setting by setting: (endpoint: mean tumor weight, dose: 25.0 mg/kg/injection, schedule: Q01DX011 (ip), vehicle: carboxymethylcellulose (CMC), higher = larger tumour) 79 % of control; (endpoint: mean tumor weight, dose: 50.0 mg/kg/injection, schedule: Q01DX011 (ip), vehicle: carboxymethylcellulose (CMC), higher = larger tumour) 122 % of control; under setting [1], 38 % of control.
As for `CN(C)CC/C=C1\c2ccccc2Sc2ccc(Cl)cc21`, the T/C is, setting by setting: (endpoint: median survival time, dose: 1.87 mg/kg/injection, schedule: Q01DX001 (ip), vehicle: Klucel (hydroxypropylcellulose) (HPC), higher = longer survival) 102 % of control; (endpoint: median survival time, dose: 3.75 mg/kg/injection, schedule: Q01DX001 (ip), vehicle: Klucel (hydroxypropylcellulose) (HPC), higher = longer survival) 109 % of control; (endpoint: median survival time, dose: 7.5 mg/kg/injection, schedule: Q01DX001 (ip), vehicle: Klucel (hydroxypropylcellulose) (HPC), higher = longer survival) 88 % of control; (endpoint: median survival time, dose: 15.0 mg/kg/injection, schedule: Q01DX001 (ip), vehicle: Klucel (hydroxypropylcellulose) (HPC), higher = longer survival) 102 % of control.
On to `c1ccc(N/N=C2/CCN3CCCc4cccc2c43)cc1`, for which the T/C is 105 % of control (endpoint: median survival time, dose: 12.5 mg/kg/injection, schedule: Q04DX003 (ip), vehicle: DMSO, higher = longer survival); 87 % of control (endpoint: median survival time, dose: 25.0 mg/kg/injection, schedule: Q04DX003 (ip), vehicle: DMSO, higher = longer survival); 109 % of control (endpoint: median survival time, dose: 50.0 mg/kg/injection, schedule: Q04DX003 (ip), vehicle: DMSO, higher = longer survival).
